{"source": "patent US20050049202A1", "about": "“Benzoic acid derivatives and uses thereof” (priority 2000, published 2005)", "key": {"[1]": {"tested_on": "THP-1 clone No. 63 (containing PGL2_Neo30)", "assay": "Luciferase reporter gene assay for compounds which destabilize mRNA, clone No. 63", "type": "cell-based", "settings": "clone 63", "text": "(§1) One method for identifying a the ability of a compound of the present invention to induce mRNA degradation, comprises i) contacting the compound with a DNA expression system which in the absence of the compound is capable of expressing a protein having a detectable signal, wherein the mRNA which codes for the protein and which is transcribed from the expression system comprises at least one copy of a mRNA instability sequence; ii) measuring the detectable signal in the presence of the test compound and comparing the result obtained with a control. A related method can be used to compare compounds which induce mRNA degradation. This method comprises separately contacting the compounds with a DNA expression system which in the absence of the compounds is capable of expressing a protein having a detectable signal, wherein the mRNA which codes for the protein and which is transcribed from the expression system comprises at least one copy of a mRNA instability sequence, measuring the detectable signal in the presence of each test compound and comparing the signals obtained.\n(§2) The THP-1 cell lines, clone No. 63 (containing PGL2_Neo30) and clone No. 53 (containing pGL2-Control) are grown, differentiated and stimulated with IFN-γ and LPS identical to normal THP-1 cells (for details see WO 00/39314). Compound is added 16 hrs after the addition of LPS and cell extracts are then taken 8 hrs later or as indicated. Luciferase activity was inhibited by 1 μM benzoic acid derivative on average by 40%, whereas up to 5 μM of benzoic acid derivative had no effects on the control clone No. 53."}, "[2]": {"tested_on": "THP-1 clone No. 53 (containing pGL2-Control)", "assay": "Luciferase reporter gene assay, control clone No. 53", "type": "cell-based", "settings": "control clone 53", "text": "as §1, §2"}}, "data": [{"smiles": "COc1cccc(C)c1C(=O)OC[C@@H]1C=CC(=O)O1", "values": [{"measurement": "Luciferase reporter gene assay (% control)", "setting": "[1]; 0.5 μM", "value": 85, "unit": "% control"}, {"measurement": "Luciferase reporter gene assay (% control)", "setting": "[1]; 1 μM", "value": 79, "unit": "% control"}, {"measurement": "Luciferase reporter gene assay (% control)", "setting": "[1]; 5 μM", "value": 29, "unit": "% control"}, {"measurement": "Luciferase reporter gene assay (% control)", "setting": "[2]; 0.5 μM", "value": 89, "unit": "% control"}, {"measurement": "Luciferase reporter gene assay (% control)", "setting": "[2]; 1 μM", "value": 93, "unit": "% control"}, {"measurement": "Luciferase reporter gene assay (% control)", "setting": "[2]; 5 μM", "value": 99, "unit": "% control"}]}]}
